The values that follow are results of earlier work, collected in patent US20190380987A1, “COMPOSITION AND METHOD FOR TREATING MUCOLYTIC AND INFLAMMATORY AIRWAY CONDITIONS” (priority 2018, published 2019).

Each structure is given as a SMILES string.

One data set has as its system CF patients. The following applies: 2700 mg of oral NAC per day in divided doses of 900 mg, controls declined.

In the case of `CC(=O)N[C@@H](CS)C(=O)O` [N-acetylcysteine], the solubility in alcohol result (alcohol) is reported as “soluble”. For the same compound, where the note is “chloroform”, the solubility in chloroform result was “practically insoluble”. Further, the solubility in ether result (ether) was “practically insoluble”. Also, under “water”, the solubility in water result is given as “soluble”. In the data set with CF patients, the lung function decline entry is given as “did not experience lung function decline”.
